# Measurements as given in US10721934B2, “Enhanced preservative” (Arch Chemicals, Inc., priority 2013, dated 2020).
# How the values were obtained:
# Format in all cases: cell-based
# [1] = system: mixed bacterial inoculum (Pseudomonas aeruginosa, Enterobacter cloacae, Escherichia coli, Acinetobacter calcoaceticus); experiment: Repeated inoculation of standard acrylic paint, streak plate rating
# How it was run: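 Acrylic paint containing pyrithione, isothiazolinone and biocide enhancing agent, alone or mixed at varied concentrations, was challenged three times with an aqueous suspension of the four bacteria in equal proportions. Samples were streak plated 24, 48 and 72 h after inoculation and the plates rated for growth.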
# Aspergillus brasiliensis = experiment: MIC test, 96 well microtiter plate; details: single chemical
# How it was run: (§1)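 Broth microdilution MIC in broth suited to each organism; actives serially diluted in sterile water, starting concentration set by efficacy range. Inoculum in 2× broth added per well to approximately 5×10^5 final. Amines also tested combined with a pyrithione and two isothiazolinones.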
# Candida albicans = experiment: MIC test, 96 well microtiter plate; details: single chemical
# How it was run: as §1
# Aureobasidium pullulans = experiment: MIC test, 96 well microtiter plate; details: single chemical
# How it was run: as §1
# Escherichia coli = experiment: MIC test, 96 well microtiter plate; details: single chemical
# How it was run: as §1
# Staphylococcus aureus = experiment: MIC test, 96 well microtiter plate; details: single chemical
# How it was run: as §1
# [2] = system: Pseudomonas aeruginosa ATCC 15442; experiment: Minimum Inhibitory Concentration (MIC) test, 96 well microtiter plate; details: single chemical
# Experimental: Microorganisms: Pseudomonas aeruginosa ATCC 15442
# MIC set up: A 96 well microtiter plate Minimum Inhibitory Concentration (MIC) test was run in broth suitable for the test organism. Serially diluted actives were prepared in sterilized water, and the start-up concentration varied depending on the efficacy range. Inocula prepared in 2× suitable broth was added into each well, and the final concentrations of bacteria were adjusted to approximately 5×10^5.
substance,measurement,setting,value
Zinc Pyrithione [ZnPT],streak plate rating,"[1]; Set Five, ZPT 50 ppm, 1st inoculation 24 h",0
same,streak plate rating,"[1]; Set Five, ZPT 50 ppm, 1st inoculation 48 h",0
same,streak plate rating,"[1]; Set Five, ZPT 50 ppm, 1st inoculation 72 h",0
same,streak plate rating,"[1]; Set Five, ZPT 50 ppm, 2nd inoculation 24 h",2 (6-15 viable microorganisms Lightly contaminated)
same,streak plate rating,"[1]; Set Five, ZPT 50 ppm, 2nd inoculation 48 h",0
same,streak plate rating,"[1]; Set Five, ZPT 50 ppm, 2nd inoculation 72 h",0
same,streak plate rating,"[1]; Set Five, ZPT 50 ppm, 3rd inoculation 24 h",3 (16-30 viable microorganisms Moderately contaminated)
same,streak plate rating,"[1]; Set Five, ZPT 50 ppm, 3rd inoculation 48 h",5 (>45 viable microorganisms Severely contaminated)
same,streak plate rating,"[1]; Set Five, ZPT 50 ppm, 3rd inoculation 72 h",5 (>45 viable microorganisms Severely contaminated)
same,streak plate rating,"[1]; Set Four, ZPT 50 ppm, 1st inoculation 24 h",0
same,streak plate rating,"[1]; Set Four, ZPT 50 ppm, 1st inoculation 48 h",0
same,streak plate rating,"[1]; Set Four, ZPT 50 ppm, 1st inoculation 72 h",0
same,streak plate rating,"[1]; Set Four, ZPT 50 ppm, 2nd inoculation 24 h",2 (6-15 viable microorganisms Lightly contaminated)
same,streak plate rating,"[1]; Set Four, ZPT 50 ppm, 2nd inoculation 48 h",0
same,streak plate rating,"[1]; Set Four, ZPT 50 ppm, 2nd inoculation 72 h",0
same,streak plate rating,"[1]; Set Four, ZPT 50 ppm, 3rd inoculation 24 h",3 (16-30 viable microorganisms Moderately contaminated)
same,streak plate rating,"[1]; Set Four, ZPT 50 ppm, 3rd inoculation 48 h",5 (>45 viable microorganisms Severely contaminated)
same,streak plate rating,"[1]; Set Four, ZPT 50 ppm, 3rd inoculation 72 h",5 (>45 viable microorganisms Severely contaminated)
same,streak plate rating,"[1]; Set One, ZPT 50 ppm, 1st inoculation 24 h",3 (16-30 viable microorganisms Moderately contaminated)
same,streak plate rating,"[1]; Set One, ZPT 50 ppm, 1st inoculation 48 h",3 (16-30 viable microorganisms Moderately contaminated)
same,streak plate rating,"[1]; Set One, ZPT 50 ppm, 2nd inoculation 24 h",5 (>45 viable microorganisms Severely contaminated)
same,streak plate rating,"[1]; Set One, ZPT 50 ppm, 2nd inoculation 48 h",5 (>45 viable microorganisms Severely contaminated)
same,streak plate rating,"[1]; Set One, ZPT 50 ppm, 2nd inoculation 72 h",5 (>45 viable microorganisms Severely contaminated)
same,streak plate rating,"[1]; Set One, ZPT 50 ppm, 3rd inoculation 24 h",5 (>45 viable microorganisms Severely contaminated)
same,streak plate rating,"[1]; Set One, ZPT 50 ppm, 3rd inoculation 48 h",5 (>45 viable microorganisms Severely contaminated)
same,streak plate rating,"[1]; Set One, ZPT 50 ppm, 3rd inoculation 72 h",5 (>45 viable microorganisms Severely contaminated)
same,streak plate rating,"[1]; Set Three, ZPT 50 ppm, 1st inoculation 24 h",5 (>45 viable microorganisms Severely contaminated)
same,streak plate rating,"[1]; Set Three, ZPT 50 ppm, 1st inoculation 48 h",3 (16-30 viable microorganisms Moderately contaminated)
same,streak plate rating,"[1]; Set Three, ZPT 50 ppm, 1st inoculation 72 h",5 (>45 viable microorganisms Severely contaminated)
same,streak plate rating,"[1]; Set Three, ZPT 50 ppm, 2nd inoculation 24 h",5 (>45 viable microorganisms Severely contaminated)
same,streak plate rating,"[1]; Set Three, ZPT 50 ppm, 2nd inoculation 48 h",5 (>45 viable microorganisms Severely contaminated)
same,streak plate rating,"[1]; Set Three, ZPT 50 ppm, 2nd inoculation 72 h",5 (>45 viable microorganisms Severely contaminated)
same,streak plate rating,"[1]; Set Three, ZPT 50 ppm, 3rd inoculation 24 h",5 (>45 viable microorganisms Severely contaminated)
same,streak plate rating,"[1]; Set Three, ZPT 50 ppm, 3rd inoculation 48 h",5 (>45 viable microorganisms Severely contaminated)
same,streak plate rating,"[1]; Set Three, ZPT 50 ppm, 3rd inoculation 72 h",5 (>45 viable microorganisms Severely contaminated)
same,streak plate rating,"[1]; Set Two, ZPT 25 ppm, 1st inoculation 24 h",5 (>45 viable microorganisms Severely contaminated)
same,streak plate rating,"[1]; Set Two, ZPT 25 ppm, 1st inoculation 48 h",5 (>45 viable microorganisms Severely contaminated)
same,streak plate rating,"[1]; Set Two, ZPT 25 ppm, 1st inoculation 72 h",5 (>45 viable microorganisms Severely contaminated)
same,streak plate rating,"[1]; Set Two, ZPT 25 ppm, 2nd inoculation 24 h",5 (>45 viable microorganisms Severely contaminated)
same,streak plate rating,"[1]; Set Two, ZPT 25 ppm, 2nd inoculation 48 h",5 (>45 viable microorganisms Severely contaminated)
same,streak plate rating,"[1]; Set Two, ZPT 25 ppm, 2nd inoculation 72 h",5 (>45 viable microorganisms Severely contaminated)
same,streak plate rating,"[1]; Set Two, ZPT 25 ppm, 3rd inoculation 24 h",5 (>45 viable microorganisms Severely contaminated)
same,streak plate rating,"[1]; Set Two, ZPT 25 ppm, 3rd inoculation 48 h",5 (>45 viable microorganisms Severely contaminated)
same,streak plate rating,"[1]; Set Two, ZPT 25 ppm, 3rd inoculation 72 h",5 (>45 viable microorganisms Severely contaminated)
same,streak plate rating,"[1]; Set Two, ZPT 50 ppm, 1st inoculation 24 h",2 (6-15 viable microorganisms Lightly contaminated)
same,streak plate rating,"[1]; Set Two, ZPT 50 ppm, 1st inoculation 48 h",3 (16-30 viable microorganisms Moderately contaminated)
same,streak plate rating,"[1]; Set Two, ZPT 50 ppm, 1st inoculation 72 h",3 (16-30 viable microorganisms Moderately contaminated)
same,streak plate rating,"[1]; Set Two, ZPT 50 ppm, 2nd inoculation 24 h",4 (31-45 viable microorganisms Heavily contaminated)
same,streak plate rating,"[1]; Set Two, ZPT 50 ppm, 2nd inoculation 48 h",5 (>45 viable microorganisms Severely contaminated)
same,streak plate rating,"[1]; Set Two, ZPT 50 ppm, 2nd inoculation 72 h",5 (>45 viable microorganisms Severely contaminated)
same,streak plate rating,"[1]; Set Two, ZPT 50 ppm, 3rd inoculation 24 h",5 (>45 viable microorganisms Severely contaminated)
same,streak plate rating,"[1]; Set Two, ZPT 50 ppm, 3rd inoculation 48 h",5 (>45 viable microorganisms Severely contaminated)
same,streak plate rating,"[1]; Set Two, ZPT 50 ppm, 3rd inoculation 72 h",5 (>45 viable microorganisms Severely contaminated)
same,Minimum Inhibitory Concentration,Aspergillus brasiliensis,15.6 ppm
same,Minimum Inhibitory Concentration,Candida albicans,7.8 ppm
same,Minimum Inhibitory Concentration,Aureobasidium pullulans,3.9 ppm
same,Minimum Inhibitory Concentration,Escherichia coli,3.9 ppm
same,Minimum Inhibitory Concentration,Staphylococcus aureus,7.8 ppm
same,Minimum Inhibitory Concentration,[2],62.5 ppm
